# Results published in ChEMBL document CHEMBL1201862, “PubChem BioAssay data set” (2004).
#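 In this assay, cells in 96-well plates receive the compound at five concentrations for 48 hours. Endpoints are linearly interpolated between the surrounding concentrations. Here, GI50 denotes the concentration required for 50% inhibition of growth.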 The source made the active and inactive calls. No stated cut-off is given here; in the data, active = GI50 up to about 1.1 µM and inactive = higher.
# How the values were obtained:
# Assay in all cases: growth of human tumour cells (NCI), 48 h
# [1] = test system: XF498
# [2] = test system: SF-295
# [3] = test system: A549
# [4] = test system: SW-620
# [5] = test system: HL-60
# [6] = test system: SF-539
# [7] = test system: SK-MEL-28
# [8] = test system: UACC-257
# [9] = test system: K562
# [10] = test system: 786-0
# [11] = test system: HOP-62
# [12] = test system: A498
# [13] = test system: NCI-H522
# [14] = test system: SNB-19
# [15] = test system: HOP-92
# [16] = test system: SF-268
# [17] = test system: DMS-273
# [18] = test system: SR
# [19] = test system: NCI-H226
# [20] = test system: U-251
# [21] = test system: UACC-62
# [22] = test system: SK-MEL-5
# [23] = test system: MOLT-4
# [24] = test system: TK-10
# [25] = test system: CCRF-CEM
# [26] = test system: KM12
# [27] = test system: RXF 393
# [28] = test system: LOX IMVI
# [29] = test system: IGROV-1
# [30] = test system: CAKI-1
# [31] = test system: OVCAR-8
# [32] = test system: HCT-15
# [33] = test system: NCI-H23
# [34] = test system: OVCAR-5
# [35] = test system: SN12C
# [36] = test system: HT-29
# [37] = test system: M14
# [38] = test system: UO-31
# [39] = test system: RXF 631
# [40] = test system: SNB-78
# [41] = test system: SK-OV-3
# [42] = test system: LXFL 529
# [43] = test system: SK-MEL-2
# [44] = test system: ACHN
# [45] = test system: NCI-H460
# [46] = test system: HCT-116
# [47] = test system: EKVX
# [48] = test system: HCC 2998
# [49] = test system: DMS-114
# [50] = test system: SNB-75
# [51] = test system: COLO 205
# [52] = test system: DLD-1
# [53] = test system: KM-20L2
# [54] = test system: RPMI-8226
# [55] = test system: OVCAR-3
# [56] = test system: M19-MEL
# [57] = test system: Malme-3M
# [58] = test system: OVCAR-4
# [59] = test system: HOP-18
structure (smiles),measurement,setting,value
C[N+](C)=c1nc(N2CCOCC2)ss1,GI50,[1],> 100 µM (inactive)
same,GI50,[2],78.2 µM (inactive)
same,GI50,[3],47.3 µM (inactive)
same,GI50,[4],> 100 µM (inactive)
same,GI50,[5],> 100 µM (inactive)
same,GI50,[6],> 100 µM (inactive)
same,GI50,[7],> 100 µM (inactive)
same,GI50,[8],> 100 µM (inactive)
same,GI50,[9],> 100 µM (inactive)
same,GI50,[10],> 100 µM (inactive)
same,GI50,[11],> 100 µM (inactive)
same,GI50,[12],4.14 µM (inactive)
same,GI50,[13],13.7 µM (inactive)
same,GI50,[14],> 100 µM (inactive)
same,GI50,[15],> 100 µM (inactive)
same,GI50,[16],76.6 µM (inactive)
same,GI50,[17],> 100 µM (inactive)
same,GI50,[18],> 100 µM (inactive)
same,GI50,[19],> 100 µM (inactive)
same,GI50,[20],> 100 µM (inactive)
same,GI50,[21],8.53 µM (inactive)
same,GI50,[22],> 100 µM (inactive)
same,GI50,[23],> 100 µM (inactive)
same,GI50,[24],> 100 µM (inactive)
same,GI50,[25],> 100 µM (inactive)
same,GI50,[26],> 100 µM (inactive)
same,GI50,[27],> 100 µM (inactive)
same,GI50,[28],88.7 µM (inactive)
same,GI50,[29],> 100 µM (inactive)
same,GI50,[30],> 100 µM (inactive)
same,GI50,[31],> 100 µM (inactive)
same,GI50,[32],> 100 µM
same,GI50,[33],> 100 µM (inactive)
same,GI50,[34],> 100 µM (inactive)
same,GI50,[35],> 100 µM (inactive)
same,GI50,[36],22.8 µM (inactive)
same,GI50,[37],> 100 µM (inactive)
same,GI50,[38],> 100 µM (inactive)
same,GI50,[39],0.337 µM (active)
same,GI50,[40],> 100 µM (inactive)
same,GI50,[41],> 100 µM (inactive)
same,GI50,[42],> 100 µM (inactive)
same,GI50,[43],> 100 µM (inactive)
same,GI50,[44],> 100 µM (inactive)
same,GI50,[45],8.04 µM (inactive)
same,GI50,[46],> 100 µM (inactive)
same,GI50,[47],> 100 µM (inactive)
same,GI50,[48],> 100 µM (inactive)
O=C1C2=C(c3ccccc31)C(c1ccccc1Cl)N1C(=O)CSC1=N2 (centres undefined),GI50,[1],64 µM (inactive)
same,GI50,[49],53.8 µM (inactive)
same,GI50,[2],83.4 µM (inactive)
same,GI50,[3],> 100 µM (inactive)
same,GI50,[4],> 100 µM (inactive)
same,GI50,[5],45.6 µM (inactive)
same,GI50,[6],> 100 µM (inactive)
same,GI50,[7],49.3 µM (inactive)
same,GI50,[8],> 100 µM (inactive)
same,GI50,[9],50.4 µM (inactive)
same,GI50,[10],> 100 µM (inactive)
same,GI50,[11],> 100 µM (inactive)
same,GI50,[12],> 100 µM (inactive)
same,GI50,[50],39.4 µM (inactive)
same,GI50,[13],23.8 µM (inactive)
same,GI50,[14],> 100 µM (inactive)
same,GI50,[15],32.5 µM (inactive)
same,GI50,[16],56.2 µM (inactive)
same,GI50,[17],> 100 µM (inactive)
same,GI50,[51],> 100 µM (inactive)
same,GI50,[52],> 100 µM (inactive)
same,GI50,[19],> 100 µM (inactive)
same,GI50,[20],> 100 µM (inactive)
same,GI50,[21],59.4 µM (inactive)
same,GI50,[22],> 100 µM (inactive)
same,GI50,[23],33.9 µM (inactive)
same,GI50,[53],> 100 µM (inactive)
same,GI50,[24],> 100 µM (inactive)
same,GI50,[25],44.3 µM (inactive)
same,GI50,[26],> 100 µM (inactive)
same,GI50,[54],39.8 µM (inactive)
same,GI50,[28],> 100 µM (inactive)
same,GI50,[29],> 100 µM (inactive)
same,GI50,[30],> 100 µM (inactive)
same,GI50,[55],87.3 µM (inactive)
same,GI50,[56],> 100 µM (inactive)
same,GI50,[31],> 100 µM (inactive)
same,GI50,[32],83.4 µM
same,GI50,[33],85.7 µM (inactive)
same,GI50,[34],> 100 µM (inactive)
same,GI50,[57],> 100 µM (inactive)
same,GI50,[35],> 100 µM (inactive)
same,GI50,[36],> 100 µM (inactive)
same,GI50,[37],> 100 µM (inactive)
same,GI50,[38],54 µM (inactive)
same,GI50,[39],> 100 µM (inactive)
same,GI50,[41],> 100 µM (inactive)
same,GI50,[42],74.3 µM (inactive)
same,GI50,[43],> 100 µM (inactive)
same,GI50,[44],> 100 µM (inactive)
same,GI50,[45],> 100 µM (inactive)
same,GI50,[46],87.3 µM (inactive)
same,GI50,[58],60.1 µM (inactive)
same,GI50,[47],> 100 µM (inactive)
same,GI50,[48],> 100 µM (inactive)
O=C1OC(c2ccccc2)(c2ccccc2)CC1CN1CCOCC1 (centres undefined),GI50,[49],18 µM (inactive)
same,GI50,[3],10.7 µM (inactive)
same,GI50,[4],5.07 µM (inactive)
same,GI50,[5],6.61 µM (inactive)
same,GI50,[6],17.5 µM (inactive)
same,GI50,[7],18.1 µM (inactive)
same,GI50,[8],5.98 µM (inactive)
same,GI50,[9],24.2 µM (inactive)
same,GI50,[10],16.7 µM (inactive)
same,GI50,[11],> 100 µM (inactive)
same,GI50,[12],> 100 µM (inactive)
same,GI50,[50],13.9 µM (inactive)
same,GI50,[13],10.2 µM (inactive)
same,GI50,[14],44.7 µM (inactive)
same,GI50,[16],27.5 µM (inactive)
same,GI50,[17],38.2 µM (inactive)
same,GI50,[18],3.08 µM (inactive)
same,GI50,[51],6.18 µM (inactive)
same,GI50,[52],17.1 µM (inactive)
same,GI50,[20],25.4 µM (inactive)
same,GI50,[21],25.6 µM (inactive)
same,GI50,[22],29.3 µM (inactive)
same,GI50,[23],24.5 µM (inactive)
same,GI50,[53],18.2 µM (inactive)
same,GI50,[24],14.2 µM (inactive)
same,GI50,[25],2.77 µM (inactive)
same,GI50,[26],16.7 µM (inactive)
same,GI50,[59],14.6 µM (inactive)
same,GI50,[28],11.4 µM (inactive)
same,GI50,[29],> 100 µM (inactive)
same,GI50,[55],15.6 µM (inactive)
same,GI50,[56],15.9 µM (inactive)
same,GI50,[31],57.8 µM (inactive)
same,GI50,[32],16.1 µM
same,GI50,[33],20.6 µM (inactive)
same,GI50,[34],29.2 µM (inactive)
same,GI50,[57],13.5 µM (inactive)
same,GI50,[35],12.5 µM (inactive)
same,GI50,[36],1.95 µM (inactive)
same,GI50,[37],17.1 µM (inactive)
same,GI50,[38],29 µM (inactive)
same,GI50,[39],18.5 µM (inactive)
same,GI50,[41],26.5 µM (inactive)
same,GI50,[42],13.9 µM (inactive)
same,GI50,[43],17.9 µM (inactive)
same,GI50,[44],17.7 µM (inactive)
same,GI50,[45],60.7 µM (inactive)
same,GI50,[46],12.8 µM (inactive)
same,GI50,[58],23.1 µM (inactive)
same,GI50,[47],33.7 µM (inactive)
same,GI50,[48],16.5 µM (inactive)
